Format in all cases: in vivo
For series [1], the system named is Kentucky bluegrass. The series can be described thus: Greenhouse Kentucky bluegrass height and quality, ABA and paclobutrazol (Example 2). The protocol: (§1) Greenhouse studies were conducted at the Research Farm of Valent BioSciences Corporation (Long Grove, Ill.). Grasses were grown in pots (18 cm in diameter and 18 cm in height) filled with Promix BX (available from Premier Horticulture Inc. Quakertown, Pa.). Grass was irrigated daily by an overhead irrigation system. The irrigation system was set up with multiple Tornado Mist Spray Heads (10 GPH at 40 PSI-Wetted diameter, NDS/Raindrip, Woodland Hills, Calif.). Spray heads were 1-meter apart from each other and 75 cm above grass canopy. Grass was cut with a scissor at 2.5 cm height and fertilizer (1 g/L all purpose fertilizer 20-20-20, available from The Scotts Company, Marysville, Ohio) was applied once per week.
(§2) Chemical solutions were prepared with distilled water. Tween 20 (0.05% v/v) was used as an, adjuvant. Both trinexapac-ethyl (commercial product Primo Maxx, 11.3% active ingredient) and paclobutrazol (commercial product Trimmit 2SC, 22.3% active ingredient) were purchased from Syngenta Crop Protection Inc. (Greensboro, N.C.). Uniconazole-P (commercial product Sumagic, 0.55% active ingredient) was obtained from Valent U.S.A. Corporation (Walnut Creek, Calif.).
(§3) When treated with paclobutrazol or uniconazole-P, turfgrass received irrigation within 24 hours after application to flush chemicals to the root zone. After treatment, turfgrasses were arranged in a randomized complete block experimental design. Turfgrass quality, turfgrass height or clip fresh weight was measured on assigned dates. Turfgrass quality was visually rated on a 0-9 scale based on the color, uniformity and density of the grass with 0 as the worst and 9 as the best. Turfgrass height was measured as the distance between canopy surface and soil. Clips were collected from each plot; all plots were cut to a uniform height.
(§4) All experiments were randomized complete block experimental design. Data were analyzed by analysis of variance. Duncan's new multiple range tests at α=0.05 were used for mean separations.
Kentucky bluegrass sod (unknown variety) was purchased from Deak sod farms, Inc. (Union Grove, Wis.). Grass was grown in the greenhouse in pots (n=6 pots per treatment) for establishment before treatment. […] Turfgrass quality was evaluated at 7 days after treatment, and turfgrass height was measured at 7 and 28 days after treatment. Tween 20 (0.05% w/v) was included as an adjuvant. The turfgrass canopy was cut every 7 days during the experimental period.

The test system of series [2] is Kentucky bluegrass. Nature of the series: Greenhouse Kentucky bluegrass height, ABA and uniconazole-P (Example 3). The following applies: 10 ppm uniconazole-P. The protocol: as §1, §2, §3, §4
Kentucky bluegrass sod (unknown variety) was purchased from Deak sod farms, Inc. (Union Grove, Wis.). Grass was grown in the greenhouse in pots (n=6 pots per treatment) for establishment before treatment. […] Tween 20 (0.05% w/v) was included as an adjuvant. The turfgrass was cut every 7 days.

Another series relates to Bermudagrass. The series can be described thus: Bermudagrass clip weight, ABA and uniconazole-P (Example 7). The following applies: 50 ppm uniconazole-P; 7 days after treatment. The protocol: as §2, §3, §4
The test system of a further series is creeping bentgrass. The series can be described thus: Golf course green creeping bentgrass height, clip weight and quality, ABA and uniconazole-P (Example 5). The following applies: 0.5 ppm uniconazole-P. The protocol:
Field studies were conducted at the nursery green or the practice green at Countryside golf course (Mundelein, Ill.). Both greens were sand based and growing Penncross creeping bentgrass. Grass was managed with typical Illinois golf course management practices.
as §2, §3, §4
Tween 20 (0.05% w/v) was included as an adjuvant.

For `CC(C)(C)[C@@H](O)[C@@H](Cc1ccc(Cl)cc1)n1cncn1` [paclobutrazol], the Turfgrass height with Kentucky bluegrass [1] (50 ppm paclobutrazol, 7 days after treatment) is on record as 12.3 cm; in the series on Kentucky bluegrass [1] (50 ppm paclobutrazol, 28 days after treatment) it was 8.6 cm; with Kentucky bluegrass [1] (500 ppm paclobutrazol, 7 days after treatment) it was 12.1 cm; with Kentucky bluegrass [1] (500 ppm paclobutrazol, 28 days after treatment) it was 6.2 cm.
As for `CC(C)(C)[C@H](O)/C(=C\c1ccc(Cl)cc1)n1cncn1` [uniconazole-P], the Turfgrass height is listed as 12.3 cm in the series on Kentucky bluegrass [2] (7 days after treatment), 9.8 cm in the series with Kentucky bluegrass [2] (42 days after treatment), 6.0 cm with creeping bentgrass (7 days after treatment) and 4.8 cm in the series on creeping bentgrass (49 days after treatment). Also, the Clip weight turned out to be 1.4 g with Bermudagrass, 2.4 g with creeping bentgrass (7 days after treatment) and 3.3 g in the series with creeping bentgrass (49 days after treatment). The “less clip weight compared to control” value with Bermudagrass is recorded as 14%. The “Effect on turfgrass quality” value with creeping bentgrass (throughout the study (not shown)) is “No effect on turfgrass quality”.

Values taken from US20080227638A1, “Use of abscisic acid to enhance growth control” (priority 2007, published 2008).
